Read-outs that look alike come from different tables or passages of the source.

Assay type in all cases: biochemical
For assay [1], the target named is T1, 320 wild-type protein kinases (Homo sapiens, UniProt P45985).
T1 sequence (P45985 1-399): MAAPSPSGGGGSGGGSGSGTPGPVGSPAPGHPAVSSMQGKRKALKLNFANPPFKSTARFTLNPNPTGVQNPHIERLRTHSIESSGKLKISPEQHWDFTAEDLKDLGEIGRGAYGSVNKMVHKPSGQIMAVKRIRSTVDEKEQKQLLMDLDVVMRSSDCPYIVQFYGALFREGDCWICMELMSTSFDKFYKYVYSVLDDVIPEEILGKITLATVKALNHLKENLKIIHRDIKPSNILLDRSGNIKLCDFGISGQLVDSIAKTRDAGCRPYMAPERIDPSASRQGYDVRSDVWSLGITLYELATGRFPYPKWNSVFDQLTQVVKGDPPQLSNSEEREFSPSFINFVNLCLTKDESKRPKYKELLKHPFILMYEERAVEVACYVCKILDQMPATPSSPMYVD
Particulars: singlicate. The text has this: (§1) Table S4. Profiling of two compounds at two concentrations against 320 wild-type protein kinases; singlicate measurement; Residual activities (% of control).

The target of assay [2] is 320 wild-type protein kinases (Homo sapiens, UniProt Q06187). Particulars: BTK, singlicate.
From the text: as §1

The target of assay [3] is 320 wild-type protein kinases (Homo sapiens, UniProt Q16539). Particulars: p38-alpha, singlicate.
From the text: as §1

Assay [4] has as its target T2, 320 wild-type protein kinases (Homo sapiens, UniProt Q32MK0).
T2 sequence (Q32MK0 1-819): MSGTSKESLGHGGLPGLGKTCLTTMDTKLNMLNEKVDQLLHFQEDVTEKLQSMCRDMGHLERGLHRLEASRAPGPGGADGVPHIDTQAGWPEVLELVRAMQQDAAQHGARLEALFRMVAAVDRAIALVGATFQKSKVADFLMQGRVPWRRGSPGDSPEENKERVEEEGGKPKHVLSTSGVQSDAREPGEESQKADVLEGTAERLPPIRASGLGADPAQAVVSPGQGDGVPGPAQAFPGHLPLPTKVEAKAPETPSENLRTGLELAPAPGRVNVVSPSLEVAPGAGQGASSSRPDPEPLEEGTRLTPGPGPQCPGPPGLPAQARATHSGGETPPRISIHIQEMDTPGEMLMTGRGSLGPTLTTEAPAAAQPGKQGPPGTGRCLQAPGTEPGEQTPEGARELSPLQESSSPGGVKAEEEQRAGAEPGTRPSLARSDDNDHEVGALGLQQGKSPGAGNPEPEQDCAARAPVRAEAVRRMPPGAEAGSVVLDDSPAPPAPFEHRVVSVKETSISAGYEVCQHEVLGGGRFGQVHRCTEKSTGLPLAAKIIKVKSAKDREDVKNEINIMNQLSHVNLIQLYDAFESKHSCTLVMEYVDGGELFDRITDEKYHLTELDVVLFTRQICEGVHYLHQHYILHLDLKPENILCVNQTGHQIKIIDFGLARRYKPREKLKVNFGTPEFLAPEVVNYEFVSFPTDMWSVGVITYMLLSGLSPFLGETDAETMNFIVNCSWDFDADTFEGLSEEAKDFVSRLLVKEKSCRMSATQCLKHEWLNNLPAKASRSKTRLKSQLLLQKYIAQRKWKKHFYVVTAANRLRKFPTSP
Conditions: singlicate.
From the text: as §1

In assay [5] the target is T3, 320 wild-type protein kinases (Homo sapiens, UniProt Q96BR1).
T3 sequence (Q96BR1 1-496): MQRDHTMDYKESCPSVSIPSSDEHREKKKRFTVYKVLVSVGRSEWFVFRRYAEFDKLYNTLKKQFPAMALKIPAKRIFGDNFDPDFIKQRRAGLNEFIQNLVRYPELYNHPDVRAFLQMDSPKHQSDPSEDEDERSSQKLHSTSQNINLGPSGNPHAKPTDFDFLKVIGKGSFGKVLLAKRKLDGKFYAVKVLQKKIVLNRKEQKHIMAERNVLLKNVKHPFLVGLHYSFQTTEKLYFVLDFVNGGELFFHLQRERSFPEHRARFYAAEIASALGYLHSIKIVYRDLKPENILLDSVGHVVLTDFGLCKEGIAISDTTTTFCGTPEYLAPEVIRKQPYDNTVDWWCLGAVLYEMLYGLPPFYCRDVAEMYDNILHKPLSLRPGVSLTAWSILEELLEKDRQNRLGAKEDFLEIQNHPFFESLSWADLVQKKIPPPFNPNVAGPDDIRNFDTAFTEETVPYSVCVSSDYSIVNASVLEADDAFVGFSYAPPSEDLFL
Particulars: kinase SGK3, singlicate.
From the text: as §1

Sequence of 320 wild-type protein kinases (Homo sapiens, UniProt Q16539) (Q16539 whole entry): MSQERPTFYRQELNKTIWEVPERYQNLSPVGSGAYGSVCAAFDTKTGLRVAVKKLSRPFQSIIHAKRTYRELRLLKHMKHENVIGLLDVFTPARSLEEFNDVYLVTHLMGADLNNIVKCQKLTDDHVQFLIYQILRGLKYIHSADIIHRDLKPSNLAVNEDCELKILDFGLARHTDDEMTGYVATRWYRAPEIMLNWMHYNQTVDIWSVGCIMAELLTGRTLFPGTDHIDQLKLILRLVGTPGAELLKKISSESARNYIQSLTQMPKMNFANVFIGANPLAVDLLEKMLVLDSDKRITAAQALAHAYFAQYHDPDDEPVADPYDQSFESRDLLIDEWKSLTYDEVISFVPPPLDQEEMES
Sequence of 320 wild-type protein kinases (Homo sapiens, UniProt Q06187) (Q06187 whole entry): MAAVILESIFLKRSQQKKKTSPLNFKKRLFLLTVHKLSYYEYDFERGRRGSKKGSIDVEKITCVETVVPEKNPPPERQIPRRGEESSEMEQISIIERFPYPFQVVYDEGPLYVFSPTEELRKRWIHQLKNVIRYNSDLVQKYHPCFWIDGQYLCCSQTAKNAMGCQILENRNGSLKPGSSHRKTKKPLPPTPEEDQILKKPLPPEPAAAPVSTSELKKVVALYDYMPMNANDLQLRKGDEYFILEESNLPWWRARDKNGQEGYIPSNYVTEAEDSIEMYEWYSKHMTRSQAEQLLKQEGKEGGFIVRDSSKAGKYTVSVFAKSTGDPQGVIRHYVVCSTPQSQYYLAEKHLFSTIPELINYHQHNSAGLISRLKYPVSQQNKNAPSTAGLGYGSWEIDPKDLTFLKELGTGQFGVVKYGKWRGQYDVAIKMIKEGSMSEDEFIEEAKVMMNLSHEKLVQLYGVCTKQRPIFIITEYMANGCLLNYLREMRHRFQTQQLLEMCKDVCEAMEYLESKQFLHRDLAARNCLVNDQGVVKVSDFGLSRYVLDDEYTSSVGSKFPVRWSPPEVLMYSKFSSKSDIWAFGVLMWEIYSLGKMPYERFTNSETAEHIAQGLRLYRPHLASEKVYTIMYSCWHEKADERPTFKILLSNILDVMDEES

With `C#Cc1cc(Nc2ncnc3cc(OC)c(OC)cc23)ccc1Cl` [Compound 45], the Residual activity is given as 96 % of control in assay [1] (MKK4, 1.0E-06 M); 88 % of control in assay [1] (MKK4, 1.0E-07 M); 65 % of control in assay [2] (1.0E-06 M); 100 % of control in assay [2] (1.0E-07 M); 56 % of control in assay [3] (1.0E-06 M); 96 % of control in assay [3] (1.0E-07 M). The Residual activity is reported as 86 % of control in assay [4] (MYLK3, 1.0E-06 M) and 100 % of control in assay [4] (MYLK3, 1.0E-07 M). For the same compound, the “Residual activity, SGK3” value in assay [5] (assay conc. 1.0E-06 M) is 89 % of control; in assay [5] (assay conc. 1.0E-07 M) it was 93 % of control.
With `C#Cc1cc(Nc2ncnc3cc(I)ccc23)ccc1Cl` [Compound 41], the Residual activity is 93 % of control in assay [1] (MKK4, 1.0E-06 M); 87 % of control in assay [1] (MKK4, 1.0E-07 M); 100 % of control in assay [2] (1.0E-06 M); 103 % of control in assay [2] (1.0E-07 M); 71 % of control in assay [3] (1.0E-06 M); 103 % of control in assay [3] (1.0E-07 M). For the same compound, the Residual activity in assay [4] (MYLK3, 1.0E-06 M) was 93 % of control; in assay [4] (MYLK3, 1.0E-07 M) it was 104 % of control. In addition, the “Residual activity, SGK3” value was 86 % of control in assay [5] (assay conc. 1.0E-06 M) and 91 % of control in assay [5] (assay conc. 1.0E-07 M).

Source of the values: article PMC9329436, “Optimization of the 4-anilinoquin(az)oline scaffold as epidermal growth factor receptor (EGFR) inhibitors for chordoma utilizing a toxicology profiling assay platform” (Scientific Reports, 2022).
